Results from patent US20130296346A1, “DIPHENYL-AMINE DERIVATIVES: USES, PROCESS OF SYNTHESIS AND PHARMACEUTICAL COMPOSITIONS” (Faes Farma, S.A., priority 2010, published 2013).

Experiments:
[1] = test system: haematological cancer cell lines; experiment: Apoptosis induction in haematological cancer cell lines; format: cell-based
[2] = test system: human patient chronic lymphocytic leukaemia cells; experiment: Viability of chronic lymphocytic leukaemia cells from patients; format: cell-based; settings: cells with different ZAP70 expression
Protocol: A panel of 6 human patient chronic lymphocytic leukaemia cells was chosen showing different patterns of ZAP70 expression (see cytogenetic changes notated in the table 5). Cells were incubated in the presence of compound 3. Results of this study, showing the viability are depicted in FIG. 3.

HCT-116 and SW620 cells = experiment: Expression of apoptosis-related proteins by immunoblotting; format: cell-based, human; settings: colon carcinoma cells, 10 μM
Protocol: Induction of apoptosis in human colon cancer HCT-116 cell line by Compound 3 (FIG. 8A). The induction of apoptosis was quantitated as the percentage of cells in the sub-G1 region (hypodiplody) of cell cycle analysis. Briefly, cells (5×10^5) were centrifuged and fixed overnight in 70% ethanol at 4° C. Cells were washed 3 times with PBS, incubated for 1 h with 1 mg/ml RNaseA and 20 μg/ml propidium iodide at room temperature, and then analyzed for cell cycle with a Becton Dickinson FACSCalibur flow cytometer (San Jose, Calif.). HCT-116 cells were incubated for the indicated times with 10 μM Compound 3, and apoptosis was then quantitated as percentage of cells in the sub-G1 region in cell cycle analysis by flow cytometry. The position of the sub-G1 peak (hypodiploidy), integrated by apoptotic cells, as well as the G0/G1 and G2/M peaks are indicated by arrows. Untreated control cells were run in parallel. The percentage of cells with a DNA content less than G1 (sub-G1) is indicated in each histogram. The experiment shown is representative of three performed Expression of different apoptosis-related proteins during Compound 3 treatment (FIG. 8B), HCT-116 and SW620 cells were treated with 10 μM Compound 3 for the indicated times and analyzed by immunoblotting with specific antibodies for the indicated proteins. The migration positions of the different proteins are indicated. β-actin was used as a loading control. Data shown are representative of three experiments performed. About 10^7 cells were pelleted by centrifugation, washed with PBS, and lysed. […]

B16 melanoma mouse cells = experiment: Melanoma orthotopic animal model; format: in vivo; settings: 30 mg/kg intraperitoneal
Protocol: Compound 3 dose was 30 mg/kg intraperitoneal in all of these experiments.
FIG. 5A represents a PET picture of melanoma tumor luciferase activity in vivo. The intensity of the signal is higher on tumours with more proliferative cells. […] FIG. 5C is a graph showing melanoma tumor weight after control or Compound 3 treatment. 4 different and independent experiments with n=4 animals per group were carried out.

resting human PBLs = experiment: Apoptosis of resting human PBLs; format: cell-based
Protocol: To isolate normal peripheral blood lymphocytes (PBLs), mononuclear cells were obtained from fresh human peripheral blood from healthy volunteers by centrifugation on Ficoll-Hypaque density gradients, washed with phosphate-buffered saline (PBS), and resuspended in RPMI-1640 medium containing 10% (v/v) heat-inactivated FBS, 2 mM L-glutamine, 100 U/ml penicillin, and 100 μg/ml streptomycin as described (Cabaner et al. Br. J. Pharmacol 127:813-825.1999). Monocytes were depleted by culture dish adherence after overnight incubation. Nonadherent cells (lymphocytes) were washed with PBS and collected. PBL preparations were typically 70-75% CD3^+, 24-29% CD 19^+, and less than 0.4% CD 14^+.

MOSEC IDB cells = experiment: Ovarian tumor orthotopic animal model; format: in vivo, mice; settings: 30 mg/Kg i.p. 5 days per week during 2 weeks
Protocol: Experiments were performed using MOSEC IDB cells (mouse ovarian surface epithelial cells) with cloned luciferase reporter and cells implanted on mice ovarian region (Yu-Hung Huang et al, Claudin-3 gene silencing with siRNA suppresses ovarian tumor growth and metastasis. 3426-3430 PNAS 2009. vol. 106, no. 9).
FIG. 6A represents a Pet picture of luciferase activity in vivo tumor (Compound 3 treated mice: 30 mg/Kg i.p. 5 days per week during 2 weeks).

EHEB cells = experiment: Expression of proteins by immunoblotting in EHEB cells; format: cell-based, human; settings: 10 μM
Protocol: Expression of different proteins in Compound 3-treated EHEB cells (FIG. 7B). Cells were treated with 10 μM Compound 3 for the indicated times and analyzed by immunoblotting with specific antibodies for the indicated proteins. The migration positions of the different proteins are indicated. β-actin was used as a loading control. Data shown are representative of three experiments performed.

Fc1ccc(CNCCCC=C(c2ccccc2)c2ccccc2)cc1 [Compound 3, (5,5-diphenyl-pent-4-enyl)-(4-fluoro-benzyl)-amine hydrocloride]
concentration inducing apoptosis in haematological cancer cell lines [1]: ~10^−6 M
decrease of viability of patient CLL cells [2]: more significant in cell with a low expression of ZAP70
caspase-9 (HCT-116 and SW620 cells): induction
expression of Mcl-1S (HCT-116 and SW620 cells): induced the expression
protein level of p53 (HCT-116 and SW620 cells): increased
in vivo antitumor activity, melanoma (B16 melanoma mouse cells): potent in vivo antitumor activity
% Apoptosis PBLs (resting human PBLs; 10^−4 M): 7.5%
% Apoptosis PBLs (resting human PBLs; 10^−5 M): 1.3%
effect on PBLs (resting human PBLs; even at 10^−4 M): hardly affect PBLs
in vivo antitumor activity, ovarian tumor area (MOSEC IDB cells): potent in vivo antitumor activity reducing the tumor area
caspase-3 (EHEB cells): activation
cleavage of PARP (EHEB cells): rapid cleavage
Caspase-4 (EHEB cells; EHEB cells): activated
caspase-9 (EHEB cells; EHEB cells): activated
induction of autophagy (LC3-II formation) (EHEB cells; EHEB cells): very rapid and potent induction of autophagy
